Assay results published in patent US20250018014A1, “METHOD FOR TREATING AND/OR PREVENTING REGNASE-1-RELATED DISEASE” (OSAKA UNIVERSITY, priority 2018, published 2025).
pIC50: −log10 of the molar value. Like-named read-outs stand apart in the source and are kept apart here. Residues, ends and D or L forms follow the SMILES beside them.

Columns and labels:
[1] = target: T1, FL_Reg1 (full-length human Regnase-1) phosphorylation by IKKβ (Homo sapiens, UniProt Q5D1E8); experiment: Regnase-1 phosphorylation inhibition by compounds (AlphaScreen), IKKβ, full-length Regnase-1; format: biochemical
T1 construct: made in house; host or cells: Expi293 cells
T1 sequence (Q5D1E8 1-599): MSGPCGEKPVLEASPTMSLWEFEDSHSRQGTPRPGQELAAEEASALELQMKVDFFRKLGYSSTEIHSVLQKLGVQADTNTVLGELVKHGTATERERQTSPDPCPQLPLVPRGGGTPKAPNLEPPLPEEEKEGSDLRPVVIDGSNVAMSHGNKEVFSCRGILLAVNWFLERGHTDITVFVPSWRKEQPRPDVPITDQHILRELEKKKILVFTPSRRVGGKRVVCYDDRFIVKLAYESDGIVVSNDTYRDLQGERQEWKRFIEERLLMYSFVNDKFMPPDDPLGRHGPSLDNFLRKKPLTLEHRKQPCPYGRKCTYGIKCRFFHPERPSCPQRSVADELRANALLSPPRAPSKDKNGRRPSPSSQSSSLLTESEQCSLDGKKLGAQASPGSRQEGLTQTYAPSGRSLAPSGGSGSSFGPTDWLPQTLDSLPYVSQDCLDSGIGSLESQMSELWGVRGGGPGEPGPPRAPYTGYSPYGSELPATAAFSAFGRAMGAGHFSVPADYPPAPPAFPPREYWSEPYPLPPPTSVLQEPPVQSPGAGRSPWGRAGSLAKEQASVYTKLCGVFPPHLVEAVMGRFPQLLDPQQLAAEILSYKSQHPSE
Method in brief: (§1)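 FLAG/BirA-tagged human Regnase-1 constructs (full-length, 1–546 or 301–599), expressed in Expi293 cells, were used at 2 nM with compound and phosphorylated by IKKβ or TBK1 with 10 μM ATP, DTT, vanadate and MnCl2 for 2 h at room temperature. Phospho-Regnase-1 was read by AlphaScreen; IC50 came from % inhibition curves normalised to DMSO and Regnase-1-alone signals.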

[2] = target: T2, binding between IKKβ and full-length Regnase-1 (FL_Reg1) (Homo sapiens, UniProt Q5D1E8); experiment: Inhibition of kinase-Regnase-1 binding by the compounds (AlphaScreen), IKKβ
T2 construct: made in house; host or cells: Expi293 cells
T2 sequence (Q5D1E8 1-599): T1 sequence (Q5D1E8 1-599)
Method in brief: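 FLAG-tagged, biotin-acceptor-tagged full-length human Regnase-1 was expressed in Expi293 cells. It was mixed at 2.5 nM with compound, then 2.5 nM IKKβ or TBK1 was added for 2 h at room temperature. Binding was read with anti-FLAG acceptor and glutathione donor beads; IC50 came from dose-response inhibition relative to Regnase-1 alone and DMSO.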

[3] = target: T3, FL_Reg1 (full-length human Regnase-1) phosphorylation by TBK1 (Homo sapiens, UniProt Q5D1E8); experiment: Regnase-1 phosphorylation inhibition by compounds (AlphaScreen), TBK1, full-length Regnase-1; format: biochemical
T3 construct: made in house; host or cells: Expi293 cells
T3 sequence (Q5D1E8 1-599): T1 sequence (Q5D1E8 1-599)
Method in brief: as §1

[4] = Table 14, phosphorylation by IKKβ, read-out: Phosphorylation inhibition FL_Reg1, 50% inhibition concentration (IKKβ)
[5] = Table 14, binding between IKKβ and Regnase-1, read-out: Binding inhibition FL_Reg1, 50% inhibition concentration (IKKβ)
[6] = Table 13, phosphorylation by TBK1, read-out: Phosphorylation inhibition FL_Reg1, 50% inhibition concentration (TBK1)
[7] = Table 11, 2 nM Regnase-1, AlphaScreen, read-out: 50% inhibition concentration, Regnase-1 phosphorylation, FL_Reg1, IKKβ
[8] = Table 12, 2.5 nM Regnase-1, 2.5 nM IKKβ, AlphaScreen, read-out: 50% inhibition concentration, binding between Regnase-1 and IKKβ, FL_Reg1
[9] = Table 11, 2 nM Regnase-1, AlphaScreen, read-out: 50% inhibition concentration, Regnase-1 phosphorylation, FL_Reg1, TBK1

CC[C@H](C)[C@@H]1NC(=O)[C@H](CC(N)=O)NC(=O)[C@H](Cc2ccc(O)cc2)NC(=O)[C@H](Cc2c[nH]c3ccccc23)NC(=O)[C@H](CO)NC(=O)[C@H](CC(N)=O)NC(=O)[C@H](CO)NC(=O)[C@H](Cc2ccccc2)NC(=O)[C@H](CC(N)=O)NC(=O)[C@H](C)N(C)C(=O)C[C@@H](C(=O)N2CCCC2)NC(=O)[C@H](Cc2c[nH]c3ccccc23)NC1=O [PP16] (HELM PEPTIDE1{[meA].N.F.S.N.S.W.Y.N.I.W.D.[C1CCN([*:1])C1]}$PEPTIDE1,PEPTIDE1,1:R1-12:R3$$$V2.0)
pIC50 [1, 4]: 4.69
pIC50 [2, 5]: < 4.21
pIC50 [3, 6]: 4.28

CC[C@H](C)[C@@H]1NC(=O)[C@H](CCCCN)NC(=O)[C@H](Cc2ccc(O)cc2)NC(=O)[C@H](Cc2ccccc2)NC(=O)[C@H](C(C)C)NC(=O)[C@H](C)N(C)C(=O)C[C@@H](C(=O)N2CCCC2)NC(=O)[C@H](Cc2c[nH]c3ccccc23)NC(=O)[C@H](CC(N)=O)NC(=O)[C@H](Cc2ccc(O)cc2)NC(=O)[C@H](Cc2c[nH]c3ccccc23)NC1=O [PP19] (HELM PEPTIDE1{[meA].V.F.Y.K.I.W.Y.N.W.D.[C1CCN([*:1])C1]}$PEPTIDE1,PEPTIDE1,1:R1-11:R3$$$V2.0)
pIC50 [1, 4]: 5.27
pIC50 [2, 5]: 5.24
pIC50 [3, 6]: 5.43

CC[C@H](C)[C@@H]1NC(=O)[C@H](Cc2ccc(O)cc2)NC(=O)[C@H](C)N(C)C(=O)C[C@@H](C(=O)N2CCCC2)NC(=O)[C@H](CC(C)C)NC(=O)[C@H](CC(=O)O)NC(=O)CNC(=O)[C@H](Cc2ccccc2)NC(=O)[C@H](Cc2ccccc2)NC(=O)[C@H](CC(=O)O)NC(=O)[C@H](Cc2c[nH]c3ccccc23)NC1=O [PP4] (HELM PEPTIDE1{[meA].Y.I.W.D.F.F.G.D.L.D.[C1CCN([*:1])C1]}$PEPTIDE1,PEPTIDE1,1:R1-11:R3$$$V2.0)
pIC50 [1, 7]: 4.71
pIC50 [2, 8]: 4.32
pIC50 [3, 9]: 4.21

CC[C@H](C)[C@@H]1NC(=O)[C@H](CC(N)=O)NC(=O)[C@H](Cc2ccc(O)cc2)NC(=O)[C@H](Cc2c[nH]c3ccccc23)NC(=O)[C@H](CO)NC(=O)[C@H](CC(N)=O)NC(=O)[C@H](C)NC(=O)[C@H](Cc2ccc(O)cc2)NC(=O)CNC(=O)[C@H](C)N(C)C(=O)C[C@@H](C(=O)N2CCCC2)NC(=O)[C@H](Cc2c[nH]c3ccccc23)NC1=O [PP2] (HELM PEPTIDE1{[meA].G.Y.A.N.S.W.Y.N.I.W.D.[C1CCN([*:1])C1]}$PEPTIDE1,PEPTIDE1,1:R1-12:R3$$$V2.0)
pIC50 [1, 7]: 4.78
pIC50 [2, 8]: 4.45
pIC50 [3, 9]: 4.66

CC[C@H](C)[C@@H]1NC(=O)[C@H](CC(=O)O)NC(=O)[C@H](C)N(C)C(=O)C[C@@H](C(=O)N2CCCC2)NC(=O)[C@H](Cc2ccc(O)cc2)NC(=O)[C@H](CC(=O)O)NC(=O)[C@H](Cc2c[nH]c3ccccc23)NC(=O)[C@H](Cc2ccc(O)cc2)NC(=O)[C@H](CC(=O)O)NC(=O)[C@H](Cc2ccccc2)NC(=O)[C@H](Cc2c[nH]c3ccccc23)NC1=O [PP18] (HELM PEPTIDE1{[meA].D.I.W.F.D.Y.W.D.Y.D.[C1CCN([*:1])C1]}$PEPTIDE1,PEPTIDE1,1:R1-11:R3$$$V2.0)
pIC50 [1, 4]: 6.40
pIC50 [2, 5]: > 7.22
pIC50 [3, 6]: 6.22

CC[C@H](C)[C@@H]1NC(=O)[C@H](CO)NC(=O)[C@H](CCCNC(=N)N)NC(=O)[C@H](Cc2ccc(O)cc2)NC(=O)[C@H](Cc2ccc(O)cc2)NC(=O)[C@H](Cc2c[nH]c3ccccc23)NC(=O)[C@H](CO)NC(=O)[C@H](CCC(N)=O)NC(=O)[C@H](Cc2ccc(O)cc2)NC(=O)[C@H](CC(N)=O)NC(=O)[C@H](C)N(C)C(=O)C[C@@H](C(=O)N2CCCC2)NC(=O)[C@H](Cc2c[nH]c3ccccc23)NC1=O [PP10] (HELM PEPTIDE1{[meA].N.Y.Q.S.W.Y.Y.R.S.I.W.D.[C1CCN([*:1])C1]}$PEPTIDE1,PEPTIDE1,1:R1-13:R3$$$V2.0)
pIC50 [1, 4]: 6.30
pIC50 [2, 5]: 4.94
pIC50 [3, 6]: 6.70

CC[C@H](C)[C@@H]1NC(=O)[C@H](CC(=O)O)NC(=O)[C@H](C)N(C)C(=O)C[C@@H](C(=O)N2CCCC2)NC(=O)[C@H](Cc2c[nH]c3ccccc23)NC(=O)[C@H](CC(=O)O)NC(=O)[C@H](Cc2c[nH]c3ccccc23)NC(=O)[C@H](Cc2ccc(O)cc2)NC(=O)[C@H](CC(=O)O)NC(=O)[C@H](Cc2ccccc2)NC(=O)[C@H](Cc2c[nH]c3ccccc23)NC1=O [PP17] (HELM PEPTIDE1{[meA].D.I.W.F.D.Y.W.D.W.D.[C1CCN([*:1])C1]}$PEPTIDE1,PEPTIDE1,1:R1-11:R3$$$V2.0)
pIC50 [1, 4]: 6.30
pIC50 [2, 5]: > 7.22
pIC50 [3, 6]: > 7.22

CC[C@H](C)[C@@H]1NC(=O)[C@H](CC(N)=O)NC(=O)[C@H]([C@@H](C)CC)NC(=O)[C@H](Cc2ccc(O)cc2)NC(=O)[C@H](Cc2c[nH]c3ccccc23)NC(=O)[C@H](CO)NC(=O)[C@H](CC(N)=O)NC(=O)[C@H](C)N(C)C(=O)C[C@@H](C(=O)N2CCCC2)NC(=O)[C@H](Cc2c[nH]cn2)NC(=O)CNC(=O)[C@H](Cc2c[nH]c3ccccc23)NC1=O [PP15] (HELM PEPTIDE1{[meA].N.S.W.Y.I.N.I.W.G.H.D.[C1CCN([*:1])C1]}$PEPTIDE1,PEPTIDE1,1:R1-12:R3$$$V2.0)
pIC50 [1, 4]: 5.25
pIC50 [2, 5]: 4.47
pIC50 [3, 6]: 5.07

CC[C@H](C)[C@@H]1NC(=O)[C@H](Cc2c[nH]c3ccccc23)NC(=O)[C@H](CCC(N)=O)NC(=O)[C@H](Cc2ccc(O)cc2)NC(=O)[C@H](C(C)C)NC(=O)[C@H](C)NC(=O)[C@H](Cc2ccc(O)cc2)NC(=O)[C@H](CCCNC(=N)N)NC(=O)[C@H](C)N(C)C(=O)C[C@@H](C(=O)N2CCCC2)NC(=O)[C@@H]2CCCN2C(=O)[C@H](Cc2ccc(O)cc2)NC1=O [PP12] (HELM PEPTIDE1{[meA].R.Y.A.V.Y.Q.W.I.Y.P.D.[C1CCN([*:1])C1]}$PEPTIDE1,PEPTIDE1,1:R1-12:R3$$$V2.0)
pIC50 [1, 4]: 5.17
pIC50 [2, 5]: < 4.21
pIC50 [3, 6]: 4.90

CC[C@H](C)[C@@H]1NC(=O)[C@H](Cc2c[nH]c3ccccc23)NC(=O)[C@@H](Cc2ccccc2)NC(=O)[C@H](CCCCN)NC(=O)[C@H](C)N(C)C(=O)C[C@@H](C(=O)N2CCCC2)NC(=O)[C@H](CCC(=O)O)NC(=O)[C@H](Cc2ccccc2)NC(=O)[C@H](CO)NC(=O)[C@H](Cc2c[nH]cn2)NC(=O)[C@H](Cc2c[nH]cn2)NC1=O [PP20] (HELM PEPTIDE1{[meA].K.[dF].W.I.H.H.S.F.E.D.[C1CCN([*:1])C1]}$PEPTIDE1,PEPTIDE1,1:R1-11:R3$$$V2.0)
pIC50 [1, 4]: 4.61
pIC50 [2, 5]: < 4.21
pIC50 [3, 6]: 4.41

CC[C@H](C)[C@@H]1NC(=O)[C@H](CC(N)=O)NC(=O)[C@H](Cc2ccc(O)cc2)NC(=O)[C@H](Cc2c[nH]c3ccccc23)NC(=O)[C@H](C)NC(=O)[C@H](CC(N)=O)NC(=O)[C@H](CO)NC(=O)[C@H](Cc2c[nH]cn2)NC(=O)[C@H](C)N(C)C(=O)C[C@@H](C(=O)N2CCCC2)NC(=O)[C@H](Cc2c[nH]c3ccccc23)NC1=O [PP5] (HELM PEPTIDE1{[meA].H.S.N.A.W.Y.N.I.W.D.[C1CCN([*:1])C1]}$PEPTIDE1,PEPTIDE1,1:R1-11:R3$$$V2.0)
pIC50 [1, 7]: 4.63
pIC50 [2, 8]: 4.62
pIC50 [3, 9]: 4.62

CC[C@H](C)[C@@H]1NC(=O)[C@H](CCCNC(=N)N)NC(=O)[C@H](Cc2ccc(O)cc2)NC(=O)[C@H](Cc2c[nH]c3ccccc23)NC(=O)[C@H](C)NC(=O)[C@H](CO)NC(=O)[C@H](C)NC(=O)[C@H](Cc2c[nH]cn2)NC(=O)[C@H](CCCCN)NC(=O)[C@@H](C)N(C)C(=O)C[C@@H](C(=O)N2CCCC2)NC(=O)[C@H](Cc2c[nH]c3ccccc23)NC1=O [PP3] (HELM PEPTIDE1{[C[C@H](C(=O)[*:2])N(C)[*:1]].K.H.A.S.A.W.Y.R.I.W.D.[C1CCN([*:1])C1]}$PEPTIDE1,PEPTIDE1,1:R1-12:R3$$$V2.0)
pIC50 [1, 7]: 5.34
pIC50 [2, 8]: 5.08
pIC50 [3, 9]: 5.41
